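Five concentrations, 48 hours, 96-well plates. At the GI50, growth is halved.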 Activity calls are given as the source filed them. Rule as the data show it: active = GI50 up to about 1.1 µM and inactive = higher.

Among the test systems are LOX IMVI; HCC 2998; SF-295; IGROV-1; UACC-62; CAKI-1; SNB-75; NCI-H226; HCT-116; 786-0; K562; SW-620; SF-539; OVCAR-4; HT-29; SK-MEL-28; OVCAR-3; SR.
Holding throughout (assay): growth of human tumour cells (NCI), 48 h

Turning to `Oc1cc(-c2ccccc2)nc2cc(Cl)ccc12`, the GI50 in the assay on LOX IMVI was 0.869 µM (active); in the assay with HCC 2998, 0.897 µM (active); in the assay on SF-295 it was 0.368 µM (active); in the assay on IGROV-1, 0.54 µM (active); with UACC-62, 0.294 µM (active); in the assay with CAKI-1 it was 0.283 µM (active). Further, the GI50 in the assay with SNB-75 is 0.352 µM (active); in the assay on NCI-H226, 7.67 µM (inactive); with HCT-116, 0.339 µM (active); in the assay on 786-0 it was 0.507 µM (active); in the assay on K562, 0.382 µM (active); in the assay with SW-620 it was 0.34 µM (active). Also, the GI50 in the assay with SF-539 was 0.412 µM (active); in the assay on OVCAR-4, 9.14 µM (inactive); in the assay on HT-29, 2 µM (inactive); in the assay on SK-MEL-28, 17.9 µM (inactive).

As to `O=C1OC(CCCl)(c2ccccc2)CC1CN1CCOCC1` (configuration not stated), the GI50 in the assay with LOX IMVI was 27.3 µM (inactive); in the assay on OVCAR-3, 17.8 µM (inactive); in the assay with HCC 2998 it was 26.3 µM (inactive); in the assay with SF-295 it was 43 µM (inactive); with IGROV-1, 23.6 µM (inactive); with UACC-62, 21 µM (inactive). Besides, the GI50 in the assay with CAKI-1 is 8.49 µM (inactive); in the assay with SNB-75 it was 15.4 µM (inactive); in the assay with NCI-H226 it was 13.8 µM (inactive); with 786-0, 12.1 µM (inactive); in the assay on K562 it was 14.8 µM (inactive); with SW-620, 17 µM (inactive). Moreover, the GI50 with SF-539 was 27.2 µM (inactive); in the assay on OVCAR-4, 48.4 µM (inactive); with HT-29, 18.4 µM (inactive); in the assay with SK-MEL-28, 19.7 µM (inactive).

Consider `O=C(CC1(O)C(=O)Nc2c(Cl)ccc(Cl)c21)c1ccc(Cl)cc1Cl` (configuration not stated), for which the GI50 was 14.3 µM (inactive) in the assay with LOX IMVI; 16.2 µM (inactive) in the assay with OVCAR-3; 15.7 µM (inactive) with HCC 2998; 23.2 µM (inactive) in the assay with SF-295; 18.3 µM (inactive) in the assay on IGROV-1; 16.1 µM (inactive) in the assay with UACC-62. The GI50 was 20.3 µM (inactive) with CAKI-1; 16.7 µM (inactive) with SNB-75; 15.5 µM (inactive) in the assay with NCI-H226; 19.1 µM (inactive) in the assay on HCT-116; 14.2 µM (inactive) in the assay on 786-0; 14.1 µM (inactive) in the assay on SW-620. Besides, the GI50 with SF-539 is 19.2 µM (inactive); with OVCAR-4 it was 10.4 µM (inactive); in the assay on HT-29, 15.3 µM (inactive); in the assay with SK-MEL-28, 21.7 µM (inactive).

As for `O=C(/N=C(/Nc1ccccc1)SCCS/C(=N\C(=O)c1ccccc1)Nc1ccccc1)c1ccccc1`, the GI50 in the assay with LOX IMVI is 58.6 µM (inactive); with OVCAR-3 it was 67.9 µM (inactive); in the assay on HCC 2998, 34.9 µM (inactive); with SF-295 it was 58.9 µM (inactive); with IGROV-1, > 100 µM (inactive); in the assay on UACC-62 it was 52.2 µM (inactive). Also, the GI50 is 33.7 µM (inactive) in the assay on CAKI-1; 29.5 µM (inactive) in the assay on SNB-75; 66.5 µM (inactive) with NCI-H226; 46.8 µM (inactive) in the assay with HCT-116; 61.4 µM (inactive) in the assay with 786-0; 43.6 µM (inactive) with K562. The GI50 in the assay on SW-620 was > 100 µM (inactive); with SF-539, 68.2 µM (inactive); with OVCAR-4, 42.1 µM (inactive); with HT-29, 35.6 µM (inactive); in the assay on SK-MEL-28, 49.8 µM (inactive).

For the compound `CC(=O)NNc1ncc(C(=O)/C=C/c2ccccc2C)s1`, the GI50 in the assay on LOX IMVI, in the assay with OVCAR-3, in the assay with HCC 2998, in the assay on SF-295, in the assay on IGROV-1 and with UACC-62 was > 100 µM (inactive) throughout. The GI50 with CAKI-1, in the assay on SNB-75, in the assay on 786-0, with K562, in the assay with SW-620 and in the assay with SF-539 was > 100 µM (inactive) throughout. Further, the GI50 in the assay with HT-29 and in the assay with SK-MEL-28 was > 100 µM (inactive) each time.

`COC(=O)C1=CCS(=O)(=O)C1`: the GI50 in the assay on LOX IMVI, in the assay on OVCAR-3, in the assay with HCC 2998, with SF-295, with IGROV-1 and in the assay with UACC-62 was > 100 µM (inactive) each time. In addition, the GI50 in the assay on CAKI-1, in the assay with SNB-75, in the assay with NCI-H226, in the assay on HCT-116, in the assay with 786-0 and with K562 was > 100 µM (inactive) throughout. Further, the GI50 in the assay with SW-620, in the assay with SF-539, in the assay with OVCAR-4, in the assay with HT-29 and in the assay with SK-MEL-28 was > 100 µM (inactive) throughout.

For the compound `CC(=O)O[C@H]1CC2C=CC3C(CCC31)O2` (some centres not stated), the GI50 in the assay with LOX IMVI, with OVCAR-3, with HCC 2998, in the assay with IGROV-1, in the assay on UACC-62 and with CAKI-1 was > 100 µM (inactive) each time. For the same compound, the GI50 in the assay with SNB-75, in the assay on 786-0, in the assay with K562, in the assay on SW-620, with OVCAR-4 and in the assay with HT-29 was > 100 µM (inactive) each time. In the assay on SK-MEL-28, the GI50 was > 100 µM (inactive).

In the case of `O=C1NC2(CCCC2)/C(=N\O)C12CCCC2`, the GI50 in the assay with LOX IMVI, in the assay with OVCAR-3, in the assay with SF-295, in the assay with IGROV-1, with UACC-62 and with CAKI-1 was > 100 µM (inactive) each time. The GI50 in the assay with SNB-75, in the assay on SR, in the assay with HCT-116, in the assay on 786-0, with K562 and with SW-620 was > 100 µM (inactive) each time. Further, the GI50 in the assay with SF-539, in the assay on OVCAR-4, with HT-29 and in the assay with SK-MEL-28 was > 100 µM (inactive) in each case.

Regarding `CCOc1cn(C2OC(CO)C(O)C2O)c(=O)[nH]c1=O` (configuration not stated), the GI50 in the assay on LOX IMVI, with OVCAR-3, in the assay on HCC 2998, in the assay with SF-295, in the assay on IGROV-1 and in the assay on UACC-62 was > 100 µM (inactive) in each case. Moreover, the GI50 in the assay on CAKI-1, in the assay with SNB-75, in the assay with NCI-H226, with HCT-116, in the assay with 786-0 and in the assay on K562 was > 100 µM (inactive) in each case. Besides, the GI50 in the assay on SW-620 was 31.3 µM (inactive); in the assay on HT-29, > 100 µM (inactive); with SK-MEL-28, > 100 µM (inactive).

Take `CCCCCCCCc1cc2c(O)c(c1)Cc1cc(CCCCCCCC)cc(c1O)Cc1cc(CCCCCCCC)cc(c1O)Cc1cc(CCCCCCCC)cc(c1O)Cc1cc(CCCCCCCC)cc(c1O)Cc1cc(CCCCCCCC)cc(c1O)C2`: the GI50 in the assay on LOX IMVI, in the assay with HCC 2998, in the assay on SF-295, in the assay on IGROV-1, with UACC-62 and with CAKI-1 was > 100 µM (inactive) each time. The GI50 in the assay with SNB-75, with SR, with HCT-116, in the assay with 786-0, in the assay with K562 and in the assay on SW-620 was > 100 µM (inactive) throughout. Also, the GI50 in the assay on SF-539, with HT-29 and in the assay on SK-MEL-28 was > 100 µM (inactive) in each case.

`CC(C)C1C(=O)NC(CO)Cc2c[nH]c3c(C(c4c[nH]c5ccccc45)C(O)CO)ccc(c23)N1C` (configuration not stated): the GI50 in the assay on LOX IMVI is > 100 µM (inactive); in the assay on OVCAR-3, > 100 µM (inactive); in the assay on HCC 2998, 3.38 µM (inactive); in the assay with SF-295 it was 37.2 µM (inactive); in the assay with IGROV-1, > 100 µM (inactive); in the assay on UACC-62, 79.8 µM (inactive). Also, the GI50 in the assay with SNB-75 was 84.9 µM (inactive); in the assay with SR, 21.7 µM (inactive); in the assay with HCT-116 it was > 100 µM (inactive); with 786-0, 62.8 µM (inactive); in the assay with K562, 4.19 µM (inactive); in the assay with SW-620 it was 74.8 µM (inactive). Moreover, the GI50 in the assay on SF-539, with OVCAR-4, in the assay with HT-29 and in the assay with SK-MEL-28 was > 100 µM (inactive) each time.

As for `O=c1/c(=C/c2ccc(Cl)cc2Cl)sc2nc3ccccc3n12`, the GI50 in the assay on LOX IMVI, in the assay on OVCAR-3, in the assay on HCC 2998, with SF-295, with IGROV-1 and in the assay on UACC-62 was > 100 µM (inactive) each time. In addition, the GI50 was > 100 µM (inactive) in the assay with CAKI-1; > 100 µM (inactive) in the assay with SNB-75; > 100 µM (inactive) in the assay on NCI-H226; 71.9 µM (inactive) in the assay with HCT-116; > 100 µM (inactive) in the assay with 786-0; > 100 µM (inactive) in the assay on K562. In addition, the GI50 with SW-620, with SF-539, with OVCAR-4, in the assay with HT-29 and in the assay with SK-MEL-28 was > 100 µM (inactive) in each case.

`COC1=CC(=O)C2C(C1=O)C(c1ccccc1)[C@H]2C` (some centres not stated): the GI50 with LOX IMVI was > 100 µM (inactive); in the assay with OVCAR-3, 87.1 µM (inactive); in the assay on HCC 2998, > 100 µM (inactive); in the assay with SF-295, > 100 µM (inactive); with IGROV-1 it was > 100 µM (inactive); with UACC-62, > 100 µM (inactive). The GI50 is 32.3 µM (inactive) with SNB-75; 31.6 µM (inactive) with SR; > 100 µM (inactive) in the assay with 786-0; 34.4 µM (inactive) in the assay on K562; 18.5 µM (inactive) in the assay on SW-620; > 100 µM (inactive) in the assay with SF-539. Moreover, the GI50 in the assay with HT-29 and with SK-MEL-28 was > 100 µM (inactive) in each case.

Source of the values: ChEMBL document CHEMBL1201862, “PubChem BioAssay data set” (2004).
